Laboratory results: US20070184490A1, “Neuronal nicotinic receptor ligands and their use” (priority 2006, published 2007)

Legend:
adults with ADHD [1] = experiment: pilot study: computerized cognitive assessment battery; assay type: in vivo, human
Description: (§1) Raters for the CAARS were trained and certified prior to the start of the study. Investigator-administered CAARS, CGI-ADHD-S, Hamilton Anxiety Scale (HAM-A) (Hamilton 1959), and Hamilton Depression Scale (HAM-D) (Hamilton 1960) were administered to subjects at baseline and at the completion of each treatment period (Days 14, 28, 42, and 56). CMRS, HAM-A, and HAM-D ratings were based on the previous seven days. After being trained, subjects completed a computerized cognitive assessment battery (Simpson et al 1989), which was amended to include the Conner's Continuous Performance Test (Conners 1995) and the Stroop Color Word Test (Jensen and Rohwer 1966), at baseline and at the completion of each treatment period. Attentional tasks (simple and choice reaction time, digit vigilance), selective attention (Conner's CPT), working memory tasks (numeric and spatial working memory, rapid visual information processing), episodic secondary memory (immediate and delayed word recall, word and picture recognition), motor control tasks (tracking), and executive function (the Stroop effect) were among the items assessed.
The primary efficacy endpoint was the CAARS total ADHD symptom score (sum of Inattention and Hyperactivity/Impulsivity scores) obtained on the last day of each treatment period. Treatment differences were assessed using an analysis of variance (ANOV A) model with fixed terms fitted for treatment, period, and sequence and a random effect for subjects-within-sequence. […] There were no corrections for multiple comparisons in this proof-of-concept study. Statistical tests of efficacy were one-sided; p-values ≦0.050 were considered statistically significant, and those between […] indicated a statistical trend.

adults with ADHD [2] = experiment: pilot crossover study in adults with ADHD: CAARS, CGI-ADHD-S, HAM-A, HAM-D; assay type: in vivo, human
Text: In addition to the primary outcome, the Conner's Adult ADHD Rating Scale (CAARS), secondary rating scales, neuropsychological, and safety assessments were completed. Results: A total of 11 adults with well-characterized ADHD completed this crossover study. […] On the clinical efficacy endpoints, CAARS Total Symptom Score and CAARS Hyperactive/Impulsive score, a shallow inverted V-shaped dose-response curve was observed. However, the dose-response curve for attention and memory effects as measured by computerized cognitive testing seemed dose-linear. No clinically meaningful findings in safety assessments or side effect profile were observed.
Subjects between 18 and 60 years old who met the DSM-IV-TR criteria for ADHD as assessed by clinical interview and confirmed by the Washington University in St. Louis Kiddie Schedule for Affective Disorders and Schizophrenia (WASH-U-KSADS) diagnostic criteria for ADHD (Orvaschel 1985) (Geller et al 1998) were eligible for inclusion in the study. Furthermore, a score of ≧2 on at least six of nine items in at least one of the subscales of the Conner's Adult ADHD Rating Scale (CAARS) (Conners et al 1999) at screening and Day 1 and a score of ≧4 (i.e., at least moderate severity) on the Clinical Global Impressions-ADHD Severity (CGI-ADHD-S) test (Guy 1976) at screening were required. Exclusion criteria consisted of: smoker or user of nicotine product(s) in the three months prior to enrollment; clinically significant chronic medical conditions; current diagnosis or history of schizoaffective or bipolar disorder, obsessive-compulsive disorder, schizophrenia, or other psychotic disorder; current depression requiring treatment; serious homicidal or suicidal ideation; abnormal baseline laboratory values; drug or alcohol abuse/dependence within the last three months; current use of psychotropics or stimulants; and pregnant or lactating women. The following institutional review boards at Quorum IRB in Seattle, Wash., The Human Research Committee at the Lawrence House in Boston, Mass., the Institutional Board of Research Associates at the NYU School of Medicine in New York, N.Y., the New York Campus, Va. NY Harbor Healthcare Systems Subcommittee for human subjects, research and development subcommittee, and research safety subcommittee in New York, N.Y., the University of Vermont Committee on Human Research in Burlington, Vt., the Scientific Advisory Committee of Burlington, Vt., and the University of Chicago Hospitals IRB in Chicago, Ill. approved the study protocol, and all subjects provided written, informed consent.
Following an initial two-week medication washout and screening period, subjects entered an eight-week double-blind treatment period. […] A study design schematic is provided below in Table 1.
as §1, with “assessed. […]” for “assessed.”

## Cc1ncccc1OC[C@@H]1CCCN1 [ABT-089, 2-methyl-3-(2-(S)-pyrrolidinylmethoxy)pyridine]
Adults with ADHD [1]; 2 mg
  Continuous Performance Test Attentiveness: 0.56±0.27
Adults with ADHD [1]; 4 mg
  Continuous Performance Test Attentiveness: 0.68±0.27
Adults with ADHD [1]; 20 mg
  Continuous Performance Test Attentiveness: 0.69±0.27
  information processing speed: 516.3±12.7
Adults with ADHD [1]; all ABT-089 dose levels
  Continuous Performance Test number of commission errors: statistically significant improvement
Adults with ADHD [1]; in vivo
  measures of attention (reaction time, vigilance), episodic secondary memory, executive function (Stroop Effect) vs placebo: no meaningful differences
Adults with ADHD [2]; 2 mg and 4 mg doses
  Hyperactive/impulsive score improvement vs. placebo: ~20%
Adults with ADHD [2]; 2 mg and 20 mg doses
  Inattentive score improvement versus placebo: approximately 11%
Adults with ADHD [2]; 2 mg bid
  CAARS Hyperactive/Impulsive subscale, least square mean (±SE): 13.8 (0.9)
  CAARS Inattentive subscale, least square mean (±SE): 18.3 (1.2)
Adults with ADHD [2]; 2 mg dose
  CGI-ADHD-S mean score: 3.92 (0.20)
Adults with ADHD [2]; 2 mg twice daily
  effect size, CAARS total symptom score vs placebo: 0.92
Adults with ADHD [2]; 4 mg bid
  CAARS Hyperactive/Impulsive subscale, least square mean (±SE): 14.5 (0.9)
  CAARS Inattentive subscale, least square mean (±SE): 18.7 (1.2)
Adults with ADHD [2]; 4 mg dose
  CGI-ADHD-S mean score: 4.09 (0.20)
Adults with ADHD [2]; 4 mg twice daily
  effect size, CAARS total symptom score vs placebo: 0.76
Adults with ADHD [2]; 20 mg bid
  CAARS Hyperactive/Impulsive subscale, least square mean (±SE): 15.4 (0.9)
  CAARS Inattentive subscale, least square mean (±SE): 18.1 (1.2)
Adults with ADHD [2]; 20 mg dose
  CGI-ADHD-S mean score: 4.12 (0.20)
Adults with ADHD [2]; 20 mg twice daily
  effect size, CAARS total symptom score vs placebo: 0.71
Adults with ADHD [2]; in vivo
  effect on HAM-A or HAM-D scores: no effect
